Reference: the NIST ThermoML archive (doi:10.1016/j.jct.2012.04.015)
Numbers after ± are expanded uncertainties.

Columns and labels:
[1] = 101.33 kPa, Liquid, Vibrating tube method
[2] = refractive index (Na D-line) (dimensionless); settings: 101.33 kPa, Liquid, Standard Abbe refractometry

| Structure (SMILES) | mass density ([1]; 298.15 K) [kg/m3] | refractive index ([2]; 298.15 K) | mass density ([1]; 303.15 K) [kg/m3] | refractive index ([2]; 303.15 K) |
| --- | --- | --- | --- | --- |
| CCCCCC[n+]1ccn(C)c1.O=S(=O)([N-]S(=O)(=O)C(F)(F)F)C(F)(F)F | 1371.99 ± 0.55 | 1.43016 ± 0.00037 | – | – |
| CCCCn1cc[n+](C)c1.O=S(=O)([O-])C(F)(F)F [1-butyl-3-methylimidazolium trifluoromethanesulfonate] | 1303.63 ± 0.49 | 1.43895 ± 0.00037 | – | – |
| CCCCCCn1cc[n+](C)c1.O=S(=O)([O-])C(F)(F)F [1-hexyl-3-methylimidazolium trifluoromethanesulfonate] | – | – | 1232.55 ± 0.43 | 1.43926 ± 0.00037 |
| C1CCCCC1 [cyclohexane] | 773.88 ± 0.13 | 1.42356 ± 0.00031 | – | – |
| CCCCCCC [heptane] | 679.57 ± 0.18 | 1.38529 ± 0.00033 | – | – |
| Cc1ccccc1 [toluene] | 862.23 ± 0.1 | 1.49398 ± 0.00031 | – | – |
